# How the values were obtained:
# [1] = tested on: Mouse colon cancer CT-26 cells; assay: In vivo efficacy in CT-26 model; parameters: species or system BALB/c mice; details: small molecules 15mg/kg PO QD, PD-1 1mg/kg IV QW, BDO 2mg/kg IP QW, 21 days; for TGI(%): 6 mice per group
# Experimental: (§1) Female BALB/c mice (aged 6 weeks, 18-22 g) were provided by Vital River Laboratory Animal Technology Co., Ltd. (China) and used one week after quarantine and acclimation. All animals were kept in a room at 23±2 °C with a relative humidity of 50±5%, artificial lighting was provided from 08:00 to 20:00 every day, and the air was exchanged 13-18 times per hour. Mouse colon cancer CT-26 cells were cultured conventionally in 1640 medium containing 10% fetal bovine serum in an incubator at 37 °C with 5% CO2. After being subcultured, the cells were collected when they reached the desired amount. The BALB/c mice were subcutaneously injected with 2 × 10^5 CT-26 cells on the right side to form tumors. After the tumors grew to about 100 mm^3, the animals were randomly grouped for administration. Tumor volumes were measured with a caliper on day 3, day 7, day 10, day 14, day 17, and day 21 after the administration. […] The toxicity of the compounds was evaluated according to the body weight and state of the mice.
# Table 16. In vivo efficacy of some of the compounds of the present disclosure in CT-26 model
# [2] = tested on: Mouse colon cancer MC38 cells; assay: In vivo efficacy in MC-38 model; parameters: species or system C57BL6N mice; details: small molecules 15mg/kg PO QD, PD-1 1mg/kg IV QW, BDO 2mg/kg IP QW, 21 days; for TGI(%): 6 mice per group
# Experimental: as §1, with “C57BL6N” for “BALB/c”, “MC38” for “CT-26”, “10^6 MC38” for “10^5 CT-26”
# Table 15. In vivo efficacy of some of the compounds of the present disclosure in MC-38 model
# [3] = Metabolite identification in liver microsomes and hepatocytes from various species; format: in vitro ADME; details: 10 µM compound, 1.0 mg/mL liver microsomes, 37 °C, 120 min; mouse, rat, dog, monkey, human
# Experimental: After the 10 µM compound was separately incubated with 1.0 mg/mL liver microsomes or hepatocytes (from 5 species: mouse, rat, dog, monkey, and human), and an NADPH regeneration system at 37 °C for 120 min, a stop solution was added to terminate the reaction, and the incubated samples were removed from the water bath. After the reaction was terminated, the samples were vortexed and then centrifuged at 4 °C and 3260× g for 15 min. After centrifugation, all the supernatants were transferred to a 96-well plate for direct use in LC-MS analysis, or subjected to dilution or concentration and reconstitution prior to injection. An LC-UV-HRMSn (n = 1-2) analytical method was established on LC-UV-HRMSn, and data acquisition was performed using SCIEX OS software. The parent drug and the metabolites could be analyzed by mass spectrometry with different scanning modes (MS/MS or IDA) and ultraviolet full-wavelength scanning (λ = 190-500 nm). By comparing the ultraviolet and mass spectra of the post-incubation samples with those of blank samples from the same species, potential metabolites were identified. The possible structures of the metabolites were inferred by comparative analysis of the collision-induced dissociation (CID) fragments of the test compounds and their metabolites. The metabolites and their relative abundances were summarized in a table for interspecies comparison.
# [4] = Pharmacokinetic experiment in rats; format: in vivo; details: female, rat, plasma
# Experimental: Healthy female rats aged 6 to 8 weeks were intravenously administered and orally administered at doses of 1 mg/kg and 10 mg/kg. The rats were fasted overnight before the administration.
# On the day of the experiment, animals in the intravenous group were given the corresponding compound by single injection via the tail vein at an administration volume of 10 mL/kg; and animals in the oral group were given the corresponding compound by single intragastric injection at an administration volume of 10 mL/kg. The sample collection time points were 0.083 h, 0.167 h, 0.5 h, 1 h, 2 h, 4 h, 8 h, and 24 h. About 200 µL of whole blood was collected through the neck at each time point and used to prepare plasma for concentration determination by high-performance liquid chromatography-tandem mass spectrometry (LC-MS/MS). The plasma concentrations were processed using a non-compartmental model of Winnolin pharmacokinetic software, and the pharmacokinetic parameters were calculated using a linear-log trapezoidal method. Table 14. Results of in vivo pharmacokinetic evaluation of compounds
# [5] = Injection (1 mg/kg), intravenous
Structure (SMILES),Change in body weight [1],TGI(%) [1] [%],Change in body weight [2],TGI(%) [2] [%],metabolic pathways and stability in liver microsomes from all the species [3],"AUC(0-t) [4, 5] [ng·h/mL]","clearance [4, 5] [mL/min/kg]","half-life [4, 5] [min]","Vd ([4]; Injection (1 mg/kg), intravenous, read-out: Vdss) [L/kg]",AUC(0-t) ([4]; Oral administration (10 mg/kg)) [ng·h/mL],Cmax ([4]; Oral administration (10 mg/kg)) [ng/mL],Tmax ([4]; Oral administration (10 mg/kg)) [min],bioavailability ([4]; Oral administration (10 mg/kg)) [%],half-life ([4]; Oral administration (10 mg/kg)) [min]
"Nc1cc(F)ccc1NC(=O)c1ccc(CNC(=O)/C=C/c2cccnc2)cc1 [Chidamide, reference compound]",+21.1%,8.9,+21.1%,8.9,–,–,–,–,–,–,–,–,–,–
"[2H]c1cc(C(=O)Nc2ccc(F)cc2N)ccc1CNC(=O)/C=C/c1cccnc1 [Compound 5, (E)-N-(2-amino-4-fluorophenyl)-4-((3-(pyridin-3-yl)acrylamido)methyl)-3-d benzamide]",+24.2%,12.2,+24.2%,12.2,simple metabolic pathways and good stability in liver microsomes from all the species,1260,12.9,392,2.42,5150,3420,9.6,40.1,241

# Source: patent EP4631931A1, “HDAC INHIBITOR AND USE THEREOF” (Wigen Biomedicine Technology (Shanghai) Co., Ltd., priority 2022, dated 2024)
